In publication PMC10140010 (Investigational New Drugs, 2023):
Several values for one entry are separate records, joined by “and”; a condition that tells them apart may be missing. Equal entries are not always repeated.

What was measured:
c-MET = c-MET (Homo sapiens, UniProt P08581); assay: Z'-LYTE kinase selectivity; type: biochemical
P38 alpha = P38 alpha (Homo sapiens, UniProt Q16539); assay: Z'-LYTE kinase selectivity; type: biochemical
TAOK2 = TAOK2 (Homo sapiens, UniProt Q9UL54); assay: Z'-LYTE kinase selectivity; type: biochemical
P-gp/BCRP/MRP2 = assay: ABC efflux transporter substrate investigation on Caco-2 cells; conditions: for efflux ratio at 0.5 µM / efflux ratio at 5 µM / efflux ratio at 50 µM: human
[1] = test system: LU-01-0015 (HIP-ALK) patient derived lung-tumor xenografts; assay: LU-01-0015 patient-derived xenograft model (tumor volume, body weight); type: in vivo, BALB/c nude mice; conditions: for Tumor volume Mean: group mean; for Tumor volume: individual mouse, in mm³
Experimental: Female BALB/c nude mice (4–6 weeks old) were provided by Shanghai Sipple-Bikai Laboratory Animal Co., Ltd. and Beijing Vital River Laboratory Animal Technology Co., Ltd. The mice were housed in a specific pathogen-free environment under a 12 h light/dark cycle, and had free access to sterile animal feed and water.
PDX and CDX models were used for in vivo studies. Patient-derived tumors tissues were divided into about 30 mm^3 and transplanted into the right dorsal subcutis. Treatment began when the tumor size reached to 200 mm^3. The mice were randomly assignied into the corresponding dosing groups (9 mice in each group). Drugs were deliverd via daily oral for 4 weeks. Tumor size was measured periodically using a digital caliper (Cal Pro, Sylvac, Switzerland), and tumor volume was calculated as 0.5 × length × width^2. For more detailed information, please refer to Supplementary materials. All procedures and protocols of xenograft models were approved by the Institutional Animal Care and Use Committee of WuXi AppTec.
Patient-derived tumor tissue was segmented into small pieces of approximately 20–30 mm^3 and transplanted subcutaneously into the right back of mice. When the tumor volume reached 150-200 mm^3, the mice were randomly divided into corresponding groups (9 mice in each group, female). Administered by gavage once daily for 4 weeks.

LCK = LCK (Homo sapiens, UniProt P06239); assay: Z'-LYTE kinase selectivity; type: biochemical
[2] = test system: Ba/F3 (EML4-ALK^WT) cells; assay: Cell proliferation (CellTiter-Glo); type: cell-based; conditions: Mus musculus, BaF3
Experimental: (§1) Cell proliferation assay was performed using methods reported in the previous article. Cell proliferation was measured using the CellTiter-Glo® (CTG) Luminescent Cell Viability Assay (Promega, WI, USA). Cells were seeded in 96-well plates at 15,000 cells per well in detection medium containing 0.5% fetal bovine serum and placed in an incubator at 37℃ and 5% CO2 overnight. On the following day, iruplinalkib was serially diluted with DMSO, further diluted in assay medium, and added to the designated wells for serial dilution of iruplinalkib to the target gradient concentration.
(§2) Transfection was performed when cell confluent reached 70–90% in 12-well plates. Opti-MEM medium was used to dilute Lipofectamine 3000 reagent (ThermoFisher, MA, USA) and siRNA separately and mixed well. The mixture was added to the cells after incubation at room temperature for 15 min, then at 37℃ for 2–4 days.

[3] = test system: Ba/F3 (EML4-ALK^C1156Y) cells; assay: Cell proliferation (CellTiter-Glo); type: cell-based; conditions: Mus musculus, BaF3
Experimental: as §1, §2

CHK1 = CHK1 (Homo sapiens, UniProt O14757); assay: Z'-LYTE kinase selectivity; type: biochemical
CK1 alpha = CK1 alpha (Homo sapiens, UniProt P48729); assay: Z'-LYTE kinase selectivity; type: biochemical
MAPKAPK2 = MAPKAPK2 (Homo sapiens, UniProt P49137); assay: Z'-LYTE kinase selectivity; type: biochemical
CDK2 = CDK2 (Homo sapiens, UniProt P24941); assay: Z'-LYTE kinase selectivity; type: biochemical
ALK^C1156Y = ALK^C1156Y (Homo sapiens, UniProt Q9UM73, C1156Y); assay: HTRF kinase activity assay; type: biochemical
Experimental: After the kinase proteins, Ulight-peptide species, adenosine triphosphate (ATP), and compound were mixed, the reaction was carried out at room temperature. Reactions were quenched by the addition of ethylene diamine tetraacetic acid buffer containing Eu antibody and XL665-streptavidin at the indicated time points. Plate reading was performed using an Envision (Perkin Elmer, MA, USA) multifunctional microplate reader.

SRC = SRC (Homo sapiens, UniProt P12931); assay: Z'-LYTE kinase selectivity; type: biochemical
OAT3 = assay: Uptake inhibitor investigation in HEK293 cells expressing transporter; type: in vitro ADME
PDK1 = PDK1 (Homo sapiens, UniProt O15530); assay: Z'-LYTE kinase selectivity; type: biochemical; conditions: read-out: IC50 PDK1
[4] = 5 mg/kg PO QD×4 W, day 0 after administration
[5] = 5 mg/kg PO QD×4 W, day 3 after administration
[6] = 5 mg/kg PO QD×4 W, day 7 after administration
[7] = 5 mg/kg PO QD×4 W, day 10 after administration
[8] = 5 mg/kg PO QD×4 W, day 14 after administration
[9] = 5 mg/kg PO QD×4 W, day 17 after administration
[10] = 5 mg/kg PO QD×4 W, day 21 after administration
[11] = 5 mg/kg PO QD×4 W, day 24 after administration
[12] = 5 mg/kg PO QD×4 W, day 27 after administration
[13] = 10 mg/kg (D0-D7)/2.5 mg/kg PO QD×4 W, day 0 after administration
[14] = 10 mg/kg (D0-D7)/2.5 mg/kg PO QD×4 W, day 3 after administration
[15] = 10 mg/kg (D0-D7)/2.5 mg/kg PO QD×4 W, day 7 after administration
[16] = 10 mg/kg (D0-D7)/2.5 mg/kg PO QD×4 W, day 10 after administration
[17] = 10 mg/kg (D0-D7)/2.5 mg/kg PO QD×4 W, day 14 after administration
[18] = 10 mg/kg (D0-D7)/2.5 mg/kg PO QD×4 W, day 17 after administration
[19] = 10 mg/kg (D0-D7)/2.5 mg/kg PO QD×4 W, day 21 after administration
[20] = 10 mg/kg (D0-D7)/2.5 mg/kg PO QD×4 W, day 24 after administration
[21] = 10 mg/kg (D0-D7)/2.5 mg/kg PO QD×4 W, day 27 after administration
[22] = 15 mg/kg PO QD×4 W, day 0 after administration
[23] = 15 mg/kg PO QD×4 W, day 3 after administration
[24] = 15 mg/kg PO QD×4 W, day 7 after administration
[25] = 15 mg/kg PO QD×4 W, day 10 after administration
[26] = 15 mg/kg PO QD×4 W, day 14 after administration
[27] = 15 mg/kg PO QD×4 W, day 17 after administration
[28] = 15 mg/kg PO QD×4 W, day 21 after administration
[29] = 15 mg/kg PO QD×4 W, day 24 after administration
[30] = 15 mg/kg PO QD×4 W, day 27 after administration
[31] = human, HEK293 cells expressing OAT3, probe ATV, 1 μM, read-out: Inhibition rate

Sequence of ALK^C1156Y (Q9UM73 19-1620 C1156Y): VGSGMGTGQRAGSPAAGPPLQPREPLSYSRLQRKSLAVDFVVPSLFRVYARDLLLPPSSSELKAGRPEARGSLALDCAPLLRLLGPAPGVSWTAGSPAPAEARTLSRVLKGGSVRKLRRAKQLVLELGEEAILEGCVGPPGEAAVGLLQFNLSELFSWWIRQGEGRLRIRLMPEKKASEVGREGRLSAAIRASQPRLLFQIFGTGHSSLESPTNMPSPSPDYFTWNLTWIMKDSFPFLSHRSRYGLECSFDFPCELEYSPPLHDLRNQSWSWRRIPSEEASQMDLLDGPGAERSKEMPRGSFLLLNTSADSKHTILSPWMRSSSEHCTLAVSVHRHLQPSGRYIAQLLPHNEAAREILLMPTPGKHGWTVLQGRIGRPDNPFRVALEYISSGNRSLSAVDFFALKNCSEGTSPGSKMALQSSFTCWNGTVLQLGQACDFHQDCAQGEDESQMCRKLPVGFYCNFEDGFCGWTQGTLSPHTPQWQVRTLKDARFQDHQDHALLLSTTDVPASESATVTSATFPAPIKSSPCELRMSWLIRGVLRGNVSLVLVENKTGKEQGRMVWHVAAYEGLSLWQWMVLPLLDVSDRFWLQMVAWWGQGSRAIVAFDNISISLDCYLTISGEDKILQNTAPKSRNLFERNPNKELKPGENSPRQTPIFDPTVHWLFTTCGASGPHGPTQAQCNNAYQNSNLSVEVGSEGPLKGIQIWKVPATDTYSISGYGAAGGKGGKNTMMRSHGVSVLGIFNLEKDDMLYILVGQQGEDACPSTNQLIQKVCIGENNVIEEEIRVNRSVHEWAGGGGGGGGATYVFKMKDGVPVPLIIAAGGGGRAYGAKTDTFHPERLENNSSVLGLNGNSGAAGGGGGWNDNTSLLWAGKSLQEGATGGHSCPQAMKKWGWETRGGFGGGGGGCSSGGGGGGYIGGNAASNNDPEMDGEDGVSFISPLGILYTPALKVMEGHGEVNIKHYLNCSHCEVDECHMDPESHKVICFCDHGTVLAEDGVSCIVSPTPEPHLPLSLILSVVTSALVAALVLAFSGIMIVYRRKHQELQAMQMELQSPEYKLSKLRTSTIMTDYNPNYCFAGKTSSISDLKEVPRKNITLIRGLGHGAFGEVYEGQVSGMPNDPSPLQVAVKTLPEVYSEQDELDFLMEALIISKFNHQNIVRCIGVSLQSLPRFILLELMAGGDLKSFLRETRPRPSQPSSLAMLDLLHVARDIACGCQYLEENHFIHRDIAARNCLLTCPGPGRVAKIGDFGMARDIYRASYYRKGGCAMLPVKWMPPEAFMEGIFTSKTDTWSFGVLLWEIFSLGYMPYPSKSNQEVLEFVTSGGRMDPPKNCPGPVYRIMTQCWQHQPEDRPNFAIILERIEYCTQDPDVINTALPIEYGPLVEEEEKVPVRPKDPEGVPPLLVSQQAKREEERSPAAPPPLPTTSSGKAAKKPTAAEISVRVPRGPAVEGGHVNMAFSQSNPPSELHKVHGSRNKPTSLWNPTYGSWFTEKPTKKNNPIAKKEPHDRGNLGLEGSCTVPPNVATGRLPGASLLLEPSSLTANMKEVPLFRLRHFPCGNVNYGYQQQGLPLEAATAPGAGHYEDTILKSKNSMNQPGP
Sequence of CHK1 (O14757 whole entry): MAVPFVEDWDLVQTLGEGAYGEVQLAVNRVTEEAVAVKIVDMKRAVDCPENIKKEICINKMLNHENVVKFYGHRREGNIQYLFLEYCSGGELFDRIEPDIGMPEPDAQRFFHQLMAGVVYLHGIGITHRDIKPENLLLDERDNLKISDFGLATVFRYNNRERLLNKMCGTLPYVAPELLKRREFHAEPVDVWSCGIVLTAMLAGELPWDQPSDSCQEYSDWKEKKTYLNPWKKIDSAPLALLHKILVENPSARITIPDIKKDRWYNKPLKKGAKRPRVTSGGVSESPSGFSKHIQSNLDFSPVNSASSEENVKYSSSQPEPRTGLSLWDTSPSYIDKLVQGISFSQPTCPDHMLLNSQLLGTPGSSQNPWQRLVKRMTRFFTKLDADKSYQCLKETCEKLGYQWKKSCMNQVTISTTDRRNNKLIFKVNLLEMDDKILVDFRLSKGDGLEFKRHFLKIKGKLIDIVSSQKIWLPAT
Sequence of SRC (P12931 whole entry): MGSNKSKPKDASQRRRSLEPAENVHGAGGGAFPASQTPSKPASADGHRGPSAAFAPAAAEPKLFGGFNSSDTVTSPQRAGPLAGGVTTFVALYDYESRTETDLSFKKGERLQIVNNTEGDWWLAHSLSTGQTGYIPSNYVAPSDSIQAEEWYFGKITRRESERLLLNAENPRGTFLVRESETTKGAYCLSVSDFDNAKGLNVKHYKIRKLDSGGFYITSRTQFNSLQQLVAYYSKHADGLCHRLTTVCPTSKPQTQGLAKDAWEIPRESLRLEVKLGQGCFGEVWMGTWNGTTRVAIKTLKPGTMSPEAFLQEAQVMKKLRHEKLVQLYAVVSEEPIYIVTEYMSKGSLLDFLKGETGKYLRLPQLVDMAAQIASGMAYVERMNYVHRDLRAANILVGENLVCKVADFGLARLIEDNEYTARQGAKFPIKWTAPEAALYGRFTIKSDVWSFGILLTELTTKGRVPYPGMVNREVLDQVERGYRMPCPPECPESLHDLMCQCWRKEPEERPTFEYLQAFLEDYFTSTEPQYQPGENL
Sequence of P38 alpha (Q16539 whole entry): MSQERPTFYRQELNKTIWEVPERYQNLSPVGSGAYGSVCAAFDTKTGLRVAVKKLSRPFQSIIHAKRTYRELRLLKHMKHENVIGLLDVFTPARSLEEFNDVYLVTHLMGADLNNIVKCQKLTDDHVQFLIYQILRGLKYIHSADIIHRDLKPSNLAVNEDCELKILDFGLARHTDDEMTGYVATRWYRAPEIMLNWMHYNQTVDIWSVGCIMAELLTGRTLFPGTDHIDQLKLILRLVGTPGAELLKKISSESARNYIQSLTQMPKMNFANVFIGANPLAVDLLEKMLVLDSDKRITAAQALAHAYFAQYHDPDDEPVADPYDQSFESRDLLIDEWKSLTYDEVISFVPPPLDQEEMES
Sequence of c-MET (P08581 25-1390): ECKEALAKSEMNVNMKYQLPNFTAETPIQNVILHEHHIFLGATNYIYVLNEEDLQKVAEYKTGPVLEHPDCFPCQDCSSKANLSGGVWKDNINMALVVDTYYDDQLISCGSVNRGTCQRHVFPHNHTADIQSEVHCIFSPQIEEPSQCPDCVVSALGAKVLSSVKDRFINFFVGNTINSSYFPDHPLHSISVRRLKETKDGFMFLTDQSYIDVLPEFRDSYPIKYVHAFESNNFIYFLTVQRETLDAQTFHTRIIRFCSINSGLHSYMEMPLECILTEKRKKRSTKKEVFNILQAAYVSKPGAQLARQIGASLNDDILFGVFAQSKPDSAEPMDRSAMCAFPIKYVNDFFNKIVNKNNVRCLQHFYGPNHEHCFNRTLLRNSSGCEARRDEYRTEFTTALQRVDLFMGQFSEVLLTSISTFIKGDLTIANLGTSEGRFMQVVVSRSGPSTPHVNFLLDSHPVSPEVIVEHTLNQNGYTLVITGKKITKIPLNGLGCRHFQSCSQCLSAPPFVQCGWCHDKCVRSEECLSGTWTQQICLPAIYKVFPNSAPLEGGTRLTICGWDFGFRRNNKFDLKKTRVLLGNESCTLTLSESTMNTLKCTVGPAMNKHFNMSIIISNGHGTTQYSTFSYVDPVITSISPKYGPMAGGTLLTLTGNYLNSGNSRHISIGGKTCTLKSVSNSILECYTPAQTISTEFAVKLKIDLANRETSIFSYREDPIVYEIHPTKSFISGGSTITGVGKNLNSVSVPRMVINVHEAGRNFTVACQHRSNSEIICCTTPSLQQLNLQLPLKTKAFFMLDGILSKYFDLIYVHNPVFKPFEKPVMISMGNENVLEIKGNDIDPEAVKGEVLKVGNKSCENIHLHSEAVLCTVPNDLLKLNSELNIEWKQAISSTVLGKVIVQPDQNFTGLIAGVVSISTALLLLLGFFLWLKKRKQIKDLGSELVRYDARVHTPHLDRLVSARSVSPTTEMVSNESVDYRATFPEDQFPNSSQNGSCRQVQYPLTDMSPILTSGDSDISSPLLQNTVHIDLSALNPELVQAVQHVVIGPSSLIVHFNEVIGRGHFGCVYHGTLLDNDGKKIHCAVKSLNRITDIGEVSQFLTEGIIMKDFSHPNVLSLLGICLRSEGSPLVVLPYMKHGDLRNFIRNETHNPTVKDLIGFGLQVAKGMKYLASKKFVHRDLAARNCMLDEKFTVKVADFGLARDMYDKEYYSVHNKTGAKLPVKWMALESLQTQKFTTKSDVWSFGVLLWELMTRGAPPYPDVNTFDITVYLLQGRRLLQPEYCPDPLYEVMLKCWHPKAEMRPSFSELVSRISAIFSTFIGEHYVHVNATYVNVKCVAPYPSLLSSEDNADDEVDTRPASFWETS
Sequence of PDK1 (O15530 whole entry): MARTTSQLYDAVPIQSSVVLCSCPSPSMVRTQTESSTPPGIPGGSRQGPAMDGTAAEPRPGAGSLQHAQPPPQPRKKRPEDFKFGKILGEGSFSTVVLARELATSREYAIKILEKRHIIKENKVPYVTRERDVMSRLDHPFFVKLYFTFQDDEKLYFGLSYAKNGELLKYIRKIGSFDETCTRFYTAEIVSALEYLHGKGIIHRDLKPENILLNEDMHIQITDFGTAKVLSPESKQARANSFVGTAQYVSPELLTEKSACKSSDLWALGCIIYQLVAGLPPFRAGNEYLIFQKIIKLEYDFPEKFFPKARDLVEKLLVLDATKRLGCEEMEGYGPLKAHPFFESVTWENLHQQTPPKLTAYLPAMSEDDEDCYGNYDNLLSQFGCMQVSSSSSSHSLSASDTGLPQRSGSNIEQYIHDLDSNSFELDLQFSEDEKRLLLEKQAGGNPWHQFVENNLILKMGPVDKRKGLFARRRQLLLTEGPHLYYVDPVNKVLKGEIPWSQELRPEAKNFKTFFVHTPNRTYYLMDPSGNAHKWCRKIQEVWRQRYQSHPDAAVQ

COc1cc(N2CCC3(CCN(C)CC3)CC2)ccc1Nc1ncc(Cl)c(Nc2ccccc2P(C)(C)=O)n1 [Iruplinalkib]
IC50 (c-MET): 2940 ± 232 nM | IC50 (P38 alpha): > 10000 nM | IC50 (TAOK2): 1500 ± 442 nM | substrate of BCRP (P-gp/BCRP/MRP2; Caco-2): not for breast cancerresistance protein (BCRP) | substrate of P-gp (P-gp/BCRP/MRP2; Caco-2): transported substrate | Exhaust Ratio Mean (P-gp/BCRP/MRP2; Iruplinalkib 0.5 µM as substrate, with Ko143 10 µM): 20.95 | Exhaust Ratio Mean (P-gp/BCRP/MRP2; Iruplinalkib 5 µM as substrate, with Ko143 10 µM): 26.14 | Exhaust Ratio Mean (P-gp/BCRP/MRP2; Iruplinalkib 5 µM as substrate, with Verapamil 50 µM): 2.626 | efflux ratio at 0.5 µM (P-gp/BCRP/MRP2; Caco-2): 20.3 | efflux ratio at 5 µM (P-gp/BCRP/MRP2; Caco-2): 84.2 | efflux ratio at 50 µM (P-gp/BCRP/MRP2; Caco-2): 8.02 | efflux ratio at 0.5 µM (P-gp/BCRP/MRP2; Caco-2, with Elacridar 10 µM): 2.81 | efflux ratio at 5 µM (P-gp/BCRP/MRP2; Caco-2, with Elacridar 10 µM): 0.605 | efflux ratio at 50 µM (P-gp/BCRP/MRP2; Caco-2, with Elacridar 10 µM): 0.614 | efflux ratio at 50 µM (P-gp/BCRP/MRP2; Caco-2, with Ko143 10 µM): 9.89 | efflux ratio at 0.5 µM (P-gp/BCRP/MRP2; Caco-2, with Verapamil 50 µM): 3.46 | efflux ratio at 50 µM (P-gp/BCRP/MRP2; Caco-2, with Verapamil 50 µM): 1.95 | Tumor volume Mean [1, 4]: 149 mm³ | Tumor volume [1, 4]: 165 | Tumor volume Mean [1, 5]: 127 mm³ | Tumor volume [1, 5]: 165 | Tumor volume Mean [1, 6]: 82 mm³ | Tumor volume [1, 6]: 96 | Tumor volume Mean [1, 7]: 79 mm³ | Tumor volume [1, 7]: 80 | Tumor volume Mean [1, 8]: 70 mm³ | Tumor volume [1, 8]: 75 | Tumor volume Mean [1, 9]: 81 mm³ | Tumor volume [1, 9]: 96 | Tumor volume Mean [1, 10]: 89 mm³ | Tumor volume [1, 10]: 121 | Tumor volume Mean [1, 11]: 85 mm³ | Tumor volume [1, 11]: 118 | Tumor volume Mean [1, 12]: 94 mm³ | Tumor volume [1, 12]: 104 | Tumor volume Mean [1, 13]: 150 mm³ | Tumor volume [1, 13]: 136 and 117 | Tumor volume Mean [1, 14]: 124 mm³ | Tumor volume [1, 14]: 115 and 76 | Tumor volume Mean [1, 15]: 77 mm³ | Tumor volume [1, 15]: 71 and 51 | Tumor volume Mean [1, 16]: 60 mm³ | Tumor volume [1, 16]: 49 and 43 | Tumor volume Mean [1, 17]: 63 mm³ | Tumor volume [1, 17]: 48 | Tumor volume Mean [1, 18]: 77 mm³ | Tumor volume [1, 18]: 58 | Tumor volume Mean [1, 19]: 107 mm³ | Tumor volume [1, 19]: 56 | Tumor volume Mean [1, 20]: 106 mm³ | Tumor volume [1, 20]: 57 | Tumor volume Mean [1, 21]: 127 mm³ | Tumor volume [1, 21]: 65 and 99 | Tumor volume Mean [1, 22]: 149 mm³ | Tumor volume [1, 22]: 101 and 162 and 129 and 99 and 217 and 147 and 109 and 207 and 174 | Tumor volume Mean [1, 23]: 115 mm³ | Tumor volume [1, 23]: 81 and 117 and 84 and 63 and 150 and 118 and 79 and 154 and 190 | Tumor volume Mean [1, 24]: 66 mm³ | Tumor volume [1, 24]: 51 and 61 and 57 and 56 and 78 and 72 and 52 and 71 and 98 | Tumor volume Mean [1, 25]: 54 mm³ | Tumor volume [1, 25]: 48 and 61 and 44 and 35 and 63 and 79 and 45 | Tumor volume Mean [1, 26]: 49 mm³ | Tumor volume [1, 26]: 41 and 57 and 43 and 31 and 72 and 46 and 44 and 60 | Tumor volume Mean [1, 27]: 51 mm³ | Tumor volume [1, 27]: 44 and 92 and 41 and 24 and 68 and 47 and 32 and 42 | Tumor volume Mean [1, 28]: 49 mm³ | Tumor volume [1, 28]: 35 and 87 and 45 and 30 and 53 and 59 and 37 and 41 and 57 | Tumor volume Mean [1, 29]: 43 mm³ | Tumor volume [1, 29]: 29 and 56 and 37 and 23 and 45 and 53 and 34 and 22 and 91 | Tumor volume Mean [1, 30]: 49 mm³ | Tumor volume [1, 30]: 30 and 67 and 38 and 27 and 62 and 54 and 44 and 42 and 78 | tumor growth inhibition ([1]; LU-01-0015 and NCI-H3122 xenograft models, all P < 0.05): able to inhibit tumor growth | tumor inhibition effect compared with brigatinib ([1]; crizotinib-resistant model): significantly better than that of brigatinib | effect on body weight ([1]; nude mouse xenograft models (LU-01-0015, NCI-H3122), all P ≥ 0.05): no effect | IC50 (LCK): 825 ± 243 nM | IC50 [2]: 4 nM | IC50 [3]: 9 nM | IC50 (CHK1): 185 ± 41 nM | IC50 (CK1 alpha): > 10000 nM | IC50 (MAPKAPK2): > 10000 nM | IC50 (CDK2): 1560 ± 1130 nM | IC50 (ALK^C1156Y): 9.28 nM and < 10 nM | IC50 (SRC): 1680 ± 872 nM | inhibitory effect on OAT3 (OAT3; HEK293): no significant inhibitory effect | inhibition at 0.5 μM (OAT3; [31]): 26.7% | inhibition at 5 μM (OAT3; [31]): 22.5% | inhibition at 50 μM (OAT3; [31]): 31.9% | IC50 (PDK1): > 10000 nM
